Laboratory results published in the supplement of paper PMC10307832.

Assays:
Experiment in all cases: relative viability (nuclei count vs DMSO), 5 days (fraction); higher = more cells survive
CUDC-101 + Crizotinib = compound: C#Cc1cccc(Nc2ncnc3cc(OC)c(OCCCCCCC(=O)NO)cc23)c1 [CUDC-101] + C[C@@H](Oc1cc(-c2cnn(C3CCNCC3)c2)cnc1N)c1c(Cl)ccc(F)c1Cl [Crizotinib] (partner 1 µM)
Method in brief: (§1)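 For relative viability, nuclei counts in treated wells were divided by those in vehicle wells. Lung cancer cell lines had been pin-tool dosed in 1536-well plates the day after seeding and cultured for 5 days, then fixed and stained in one step (final 0.05% Triton X-100, 1% formaldehyde, 1 ug/ml Hoechst) and imaged at 4×. Doses were one drug alone or a fixed anchor-drug dose plus five library-drug doses (not always all listed) in √10 steps, and values are duplicate-plate medians.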

[1] = compound: C1=CC=C2C(=C1)N=C(S2)C(C#N)C3=NC(=NC=C3)NCCC4=CN=CC=C4 + Nc1nc2[nH]cc(CCc3ccc(C(=O)N[C@@H](CCC(=O)O)C(=O)O)cc3)c2c(=O)[nH]1 [Pemetrexed] (partner 0.2 µM)
Method in brief: as §1

Vandetanib + Navitoclax = compound: COc1cc2/c(=N/c3ccc(Br)cc3F)nc[nH]c2cc1OCC1CCN(C)CC1 [Vandetanib] + CC1(C)CCC(c2ccc(Cl)cc2)=C(CN2CCN(c3ccc(C(=O)NS(=O)(=O)c4ccc(N[C@H](CCN5CCOCC5)CSc5ccccc5)c(S(=O)(=O)C(F)(F)F)c4)cc3)CC2)C1 [Navitoclax] (partner 0.5 µM)
Method in brief: as §1

Vandetanib + Alpelisib = compound: COc1cc2/c(=N/c3ccc(Br)cc3F)nc[nH]c2cc1OCC1CCN(C)CC1 [Vandetanib] + Cc1nc(NC(=O)N2CCC[C@H]2C(N)=O)sc1-c1ccnc(C(C)(C)C(F)(F)F)c1 [Alpelisib] (partner 2 µM)
Method in brief: as §1

Cell Line	relative viability (CUDC-101 + Crizotinib; first compound 0.01 µM)	relative viability (CUDC-101 + Crizotinib; first compound 0.03162 µM)	relative viability (CUDC-101 + Crizotinib; first compound 0.1 µM)	relative viability (CUDC-101 + Crizotinib; first compound 0.3162 µM)	relative viability (CUDC-101 + Crizotinib; first compound 1 µM)	relative viability ([1]; first compound 0.005 µM)	relative viability ([1]; first compound 0.01581 µM)	relative viability ([1]; first compound 0.05 µM)	relative viability ([1]; first compound 0.1581 µM)	relative viability ([1]; first compound 0.5 µM)	relative viability (Vandetanib + Navitoclax; first compound 0.02 µM)	relative viability (Vandetanib + Navitoclax; first compound 0.06325 µM)	relative viability (Vandetanib + Navitoclax; first compound 0.2 µM)	relative viability (Vandetanib + Navitoclax; first compound 0.6325 µM)	relative viability (Vandetanib + Navitoclax; first compound 2 µM)	relative viability (Vandetanib + Alpelisib; first compound 0.02 µM)	relative viability (Vandetanib + Alpelisib; first compound 0.06325 µM)	relative viability (Vandetanib + Alpelisib; first compound 0.2 µM)	relative viability (Vandetanib + Alpelisib; first compound 0.6325 µM)	relative viability (Vandetanib + Alpelisib; first compound 2 µM)
201T	1	1.02	0.979	1.06	0.97	0.348	0.337	0.349	0.313	0.357	1.1	1.19	1.2	1.15	1.19	1.08	0.959	0.985	0.977	0.995
A549	0.855	1	0.927	0.793	0.632	–	–	–	–	–	1.12	1.23	1.12	1.08	1.22	0.686	0.698	0.613	0.751	0.663
A-427	1.05	0.868	0.773	0.829	0.579	0.874	0.94	0.995	1.1	0.975	0.931	0.952	0.992	0.935	0.874	0.951	1.01	1.11	1.06	1.1
ABC-1	0.941	0.906	0.742	0.44	0.33	–	–	–	–	–	–	–	–	–	–	1.01	0.787	0.95	1.12	0.827
BEN	1.04	0.772	0.933	0.809	0.579	0.751	0.627	0.773	0.883	0.741	0.0787	0.0663	0.063	0.0857	0.0698	0.976	0.897	0.928	1.04	0.867
CAL-12T	0.67	0.734	0.689	0.701	0.584	0.575	1.19	1.11	1.43	0.88	1.22	1.19	1.37	1.28	1.13	0.993	0.956	1.44	1.26	0.73
COR-L23	0.677	0.674	0.626	0.555	0.295	0.211	0.207	0.187	0.206	0.17	0.95	0.915	0.114	1.07	0.954	0.701	0.528	0.114	0.773	0.902
COR-L 105	0.724	0.825	0.725	0.433	0.267	0.839	1.24	1.03	1.03	1.02	0.833	0.888	0.826	0.804	0.353	1.04	0.864	0.998	0.932	0.425
Calu-6	0.835	0.958	0.745	0.664	0.547	–	–	–	–	–	0.891	0.761	0.973	0.895	0.734	0.99	1.01	0.881	0.895	0.843
ChaGo-K-1	1.17	1.14	1.12	1.2	0.924	0.249	0.263	0.293	0.255	0.256	0.939	0.998	0.942	1.24	0.489	–	–	–	–	–
EBC-1	0.17	0.182	0.202	0.147	0.127	–	–	–	–	–	0.36	0.39	0.449	0.366	0.38	0.81	0.784	0.862	0.809	0.746
EKVX	0.977	0.892	0.964	1.07	0.604	0.398	0.382	0.39	0.459	0.417	0.934	0.869	0.882	0.753	0.806	0.95	0.873	0.86	0.777	0.424
EMC-BAC-2	0.726	0.76	0.732	0.571	0.388	0.488	0.442	0.414	0.477	0.429	1.11	1.11	0.76	1.12	1.06	0.737	0.742	0.472	0.712	0.717
EPLC-272H	0.904	0.904	0.86	0.751	0.582	–	0.255	0.317	0.325	0.326	1.06	1.03	1.14	1	1.09	0.865	0.814	0.96	0.909	0.997
H3255	0.76	0.845	0.387	0.621	0.269	0.568	0.558	0.532	0.622	0.584	0.5	0.421	0.332	0.161	0.108	0.681	0.634	0.602	0.335	0.119
